In patent US10660877B2 (BRISTOL-MYERS SQUIBB COMPANY, priority 2016, dated 2020) one finds IC50 data, which are given here for eleven compounds.

pIC50: −log10 of the molar value. Where two headings read alike, the source gives them in different places.

One test addresses human TLR7 (Homo sapiens (Human), UniProt Q9NYK1). Description: TLR7 inhibition reporter assay (HEK-Blue cells, SEAP reporter, gardiquimod stimulation). It counts as cell-based. On the technique in general: Reporter assays use an easily measured gene product as a stand-in for the process of interest.
A further test concerns the target human TLR8 (Homo sapiens (Human), UniProt Q9NR97). Description: TLR8 inhibition reporter assay (HEK-Blue cells, SEAP reporter, R848 stimulation).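 Further: compounds tested from 0.05 nM to 50 µM, 22 h at 37 °C, SEAP measured with HEK-Blue Detection, inhibition relative to agonist plus DMSO versus a known inhibitor.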
In another test the target is human TLR9 (Homo sapiens (Human), UniProt Q9NR96). Description: TLR9 inhibition reporter assay (HEK-Blue cells, SEAP reporter, ODN2006 stimulation).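 Further: compounds tested over 0.05 nM to 50 µM, 22 h incubation, inhibition taken as SEAP signal drop from agonist plus DMSO wells toward a known inhibitor control.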
Chain of human TLR9 (Q9NR96 26-1032): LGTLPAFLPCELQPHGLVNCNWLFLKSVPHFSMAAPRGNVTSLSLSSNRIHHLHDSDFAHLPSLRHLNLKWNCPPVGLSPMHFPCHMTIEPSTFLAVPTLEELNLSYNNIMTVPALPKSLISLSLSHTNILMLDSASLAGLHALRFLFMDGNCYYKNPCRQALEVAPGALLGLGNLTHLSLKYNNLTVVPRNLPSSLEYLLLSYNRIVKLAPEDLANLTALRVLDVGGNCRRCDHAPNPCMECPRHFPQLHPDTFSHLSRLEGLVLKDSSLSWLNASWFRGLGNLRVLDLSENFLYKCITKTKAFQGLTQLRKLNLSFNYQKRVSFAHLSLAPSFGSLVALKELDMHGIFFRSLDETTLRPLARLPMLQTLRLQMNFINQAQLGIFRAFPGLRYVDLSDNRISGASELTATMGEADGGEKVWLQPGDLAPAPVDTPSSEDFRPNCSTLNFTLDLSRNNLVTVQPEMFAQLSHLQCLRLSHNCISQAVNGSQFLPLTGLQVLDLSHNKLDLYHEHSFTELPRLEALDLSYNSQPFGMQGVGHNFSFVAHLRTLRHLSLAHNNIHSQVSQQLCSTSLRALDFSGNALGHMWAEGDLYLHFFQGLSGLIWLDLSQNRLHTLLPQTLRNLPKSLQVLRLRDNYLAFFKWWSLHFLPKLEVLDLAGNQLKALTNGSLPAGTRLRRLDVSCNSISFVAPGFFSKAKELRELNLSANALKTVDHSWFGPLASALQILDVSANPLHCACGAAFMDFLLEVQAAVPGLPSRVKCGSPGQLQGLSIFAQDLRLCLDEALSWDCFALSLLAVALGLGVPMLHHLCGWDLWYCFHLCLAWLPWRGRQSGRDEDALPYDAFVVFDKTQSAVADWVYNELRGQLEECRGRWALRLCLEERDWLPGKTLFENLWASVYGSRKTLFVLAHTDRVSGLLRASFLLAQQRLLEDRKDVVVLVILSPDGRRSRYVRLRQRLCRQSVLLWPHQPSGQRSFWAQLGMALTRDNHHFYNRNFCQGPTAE
The mark [1] stands for this setting: HEK-Blue cells overexpressing human TLR7, gardiquimod 7.5 μM.
The mark [2] stands for this setting: read-out: TLR8 IC50, HEK-Blue cells overexpressing human TLR8, R848 15.9 μM.
Where [3] appears, read: read-out: TLR9 IC50, HEK-Blue cells overexpressing human TLR9, ODN2006 5 nM.
The mark [4] stands for this setting: HEK-Blue cells, gardiquimod 7.5 μM.
The mark [5] stands for this setting: read-out: TLR8 IC50, HEK-Blue cells, R848 15.9 μM.
The mark [6] stands for this setting: read-out: TLR9 IC50, HEK-Blue cells, ODN2006 5 nM.

Chain of human TLR8 (Q9NR97 27-1041): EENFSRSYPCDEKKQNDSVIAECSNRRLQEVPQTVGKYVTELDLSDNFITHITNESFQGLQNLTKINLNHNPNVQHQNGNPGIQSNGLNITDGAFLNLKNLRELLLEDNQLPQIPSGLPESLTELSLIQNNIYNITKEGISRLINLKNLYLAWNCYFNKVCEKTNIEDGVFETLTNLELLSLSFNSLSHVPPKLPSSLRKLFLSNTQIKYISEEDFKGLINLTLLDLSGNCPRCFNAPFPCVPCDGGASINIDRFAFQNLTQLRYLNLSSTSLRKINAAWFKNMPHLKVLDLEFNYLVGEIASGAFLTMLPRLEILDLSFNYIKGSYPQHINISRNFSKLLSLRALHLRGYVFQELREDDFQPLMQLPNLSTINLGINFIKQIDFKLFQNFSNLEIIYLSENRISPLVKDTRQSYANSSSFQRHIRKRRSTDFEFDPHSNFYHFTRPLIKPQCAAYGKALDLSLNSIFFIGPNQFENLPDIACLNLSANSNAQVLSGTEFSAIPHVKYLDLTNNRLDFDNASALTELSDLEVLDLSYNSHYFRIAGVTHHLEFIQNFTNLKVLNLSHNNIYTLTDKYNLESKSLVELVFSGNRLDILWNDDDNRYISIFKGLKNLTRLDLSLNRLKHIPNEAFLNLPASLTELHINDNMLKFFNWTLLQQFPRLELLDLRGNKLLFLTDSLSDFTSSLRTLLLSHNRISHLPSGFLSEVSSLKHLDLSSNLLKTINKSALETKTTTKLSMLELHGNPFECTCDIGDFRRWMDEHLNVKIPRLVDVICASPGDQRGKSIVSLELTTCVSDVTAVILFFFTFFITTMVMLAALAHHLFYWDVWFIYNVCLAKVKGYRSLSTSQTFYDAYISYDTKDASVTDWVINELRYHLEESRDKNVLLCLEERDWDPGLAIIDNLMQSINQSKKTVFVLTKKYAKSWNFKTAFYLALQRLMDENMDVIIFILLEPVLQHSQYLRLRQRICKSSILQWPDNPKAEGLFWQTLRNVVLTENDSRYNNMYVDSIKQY
Chain of human TLR7 (Q9NYK1 27-1049): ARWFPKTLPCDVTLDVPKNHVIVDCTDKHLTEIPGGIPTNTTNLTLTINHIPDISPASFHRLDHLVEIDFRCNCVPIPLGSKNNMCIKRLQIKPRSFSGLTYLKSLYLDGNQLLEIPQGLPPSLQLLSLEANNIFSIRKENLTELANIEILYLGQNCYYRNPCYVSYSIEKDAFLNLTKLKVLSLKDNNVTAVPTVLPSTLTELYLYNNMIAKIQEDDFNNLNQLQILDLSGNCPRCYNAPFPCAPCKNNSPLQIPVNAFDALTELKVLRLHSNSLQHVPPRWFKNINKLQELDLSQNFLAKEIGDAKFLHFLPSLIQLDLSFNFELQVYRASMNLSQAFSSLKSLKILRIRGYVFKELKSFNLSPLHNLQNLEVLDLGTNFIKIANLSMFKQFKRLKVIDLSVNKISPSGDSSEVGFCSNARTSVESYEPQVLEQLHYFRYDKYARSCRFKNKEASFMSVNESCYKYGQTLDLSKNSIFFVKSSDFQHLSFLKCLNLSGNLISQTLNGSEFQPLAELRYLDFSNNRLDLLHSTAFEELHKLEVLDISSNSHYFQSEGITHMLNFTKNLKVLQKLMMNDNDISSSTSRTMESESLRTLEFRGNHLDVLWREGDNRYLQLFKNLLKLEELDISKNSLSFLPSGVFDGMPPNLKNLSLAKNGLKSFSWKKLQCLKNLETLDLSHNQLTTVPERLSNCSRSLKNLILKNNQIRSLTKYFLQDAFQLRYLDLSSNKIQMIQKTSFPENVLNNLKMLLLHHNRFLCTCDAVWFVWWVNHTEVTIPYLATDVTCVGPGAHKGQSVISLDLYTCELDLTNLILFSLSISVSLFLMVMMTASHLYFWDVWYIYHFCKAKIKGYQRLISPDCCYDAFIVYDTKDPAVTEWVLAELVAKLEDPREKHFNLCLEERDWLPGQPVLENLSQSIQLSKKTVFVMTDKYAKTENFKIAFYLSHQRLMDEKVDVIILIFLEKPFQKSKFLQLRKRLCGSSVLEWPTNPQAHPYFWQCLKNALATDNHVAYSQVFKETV

Usually pIC50 stands for −log10 of the IC50, conventionally taken in molar units. Consider `Cc1cc(-c2cc3cc(C4CCNCC4)ccc3[nH]2)cc(C)n1` [Example 94, 2-(2,6-dimethylpyridin-4-yl)-5-(piperidin-4-yl)-1H-indole], for which the pIC50 was 6.27 at human TLR7 (setting [1]), 5.50 on human TLR8 (setting [2]) and 6.91 on human TLR9 (setting [3]).

For the compound `Cc1cc(-c2[nH]c3ccc(C4CCN(C(=O)CNC(C)C)CC4)cc3c2C(C)C)cc(C)n1` [Example 344, 1-(4-(2-(2,6-dimethylpyridin-4-yl)-3-isopropyl-1H-indol-5-yl)piperidin-1-yl)-2-(isopropylamino)ethan-1-one], the pIC50 on human TLR7 (setting [1]) was 8.60; on human TLR8 (setting [2]) it was 8.08; at human TLR9 (setting [3]), 6.31.

For `Cc1cc(-c2[nH]c3ccc(C4CCN(Cc5cncs5)CC4)cc3c2C(C)C)c(C)cn1` [Example 687, 5-((4-(2-(2,5-dimethylpyridin-4-yl)-3-isopropyl-1H-indol-5-yl)piperidin-1-yl)methyl)thiazole], the pIC50 against human TLR7 (setting [1]) is 7.59; on human TLR8 (setting [2]) it was 8.74; at human TLR9 (setting [3]), 5.31.

For `Cc1cc(-c2[nH]c3ccc(C4CCN(CC(=O)N5CCC(F)(F)C5)CC4)cc3c2C(C)C)cc(C)n1` [Example 216, 1-(3,3-difluoropyrrolidin-1-yl)-2-(4-(2-(2,6-dimethylpyridin-4-yl)-3-isopropyl-1H-indol-5-yl)piperidin-1-yl)ethan-1-one], the pIC50 is 8.55 at human TLR7 (setting [1]); 8.15 against human TLR8 (TLR8 IC50, HEK-Blue cells overexpressing human TLR8, R848 15.9 μM); 6.50 on human TLR9 (TLR9 IC50, HEK-Blue cells overexpressing human TLR9, ODN2006 5 nM).

On to `CC(=O)N1CCC(c2cc3c(C(C)C)c(-c4cc(C)nc(C)c4)[nH]c3cc2F)CC1` [Example 829, 1-(4-(2-(2,6-dimethylpyridin-4-yl)-6-fluoro-3-isopropyl-1H-indol-5-yl)piperidin-1-yl)ethan-1-one], for which the figures for the pIC50 against human TLR7 (setting [4]), at human TLR8 (setting [5]) and at human TLR9 (setting [6]) were 7.76, 7.20 and 5.51, respectively.

Turning to `Cc1cc(-c2[nH]c3ccc(C4CCN(Cc5ccn[nH]5)CC4)cc3c2C(C)C)c(F)cn1` [Example 682, 5-(1-((1H-pyrazol-5-yl)methyl)piperidin-4-yl)-2-(5-fluoro-2-methylpyridin-4-yl)-3-isopropyl-1H-indole], the pIC50 was 8.12 on human TLR7 (setting [1]), 8.77 on human TLR8 (setting [2]) and 5.57 on human TLR9 (setting [3]).

As to `Cc1cc(-c2[nH]c3ccc(C4CCN(C(=O)C(=O)N(C)CCN(C)C)CC4)cc3c2C(C)C)cc(C)n1` [Example 858, N-(2-(dimethylamino)ethyl)-2-(4-(2-(2,6-dimethylpyridin-4-yl)-3-isopropyl-1H-indol-5-yl)piperidin-1-yl)-N-methyl-2-oxoacetamide], the results for the pIC50 against human TLR7 (setting [4]), on human TLR8 (setting [5]) and at human TLR9 (setting [6]) were 8.72, 8.24 and 6.28, respectively.

Consider `Cc1cc(-c2[nH]c3cc(F)c(C4CCN(C5CC(C)OC(C)C5)CC4)cc3c2C(C)C)cc(C)n1` (stereo not drawn) [Example 830, 2-(2,6-dimethylpyridin-4-yl)-5-(1-(2,6-dimethyltetrahydro-2H-pyran-4-yl)piperidin-4-yl)-6-fluoro-3-isopropyl-1H-indole], for which the pIC50 was 8.32 against human TLR7 (setting [4]), 7.76 on human TLR8 (setting [5]) and 6.64 on human TLR9 (setting [6]).

Turning to `Cc1cc(-c2[nH]c3ccc(C4CCN(C(=O)CN5C(C)CCC5C)CC4)cc3c2C(C)C)cc(C)n1` (stereo not drawn) [Example 368, 1-(4-(2-(2,6-dimethylpyridin-4-yl)-3-isopropyl-1H-indol-5-yl)piperidin-1-yl)-2-(2,5-dimethylpyrrolidin-1-yl)ethan-1-one], the pIC50 against human TLR7 (setting [1]) is 8.35; at human TLR8 (setting [2]), 7.68; at human TLR9 (setting [3]), 6.13.

With `Cc1cc(-c2[nH]c3ccc(C4CCN(C(=O)CNC[C@@H](O)CO)CC4)cc3c2C(C)C)ccn1` [Example 511, (R)-2-((2,3-dihydroxypropyl)amino)-1-(4-(3-isopropyl-2-(2-methylpyridin-4-yl)-1H-indol-5-yl)piperidin-1-yl)ethan-1-one], the pIC50 is 7.49 against human TLR7 (setting [1]), 7.50 on human TLR8 (setting [2]) and 5.84 at human TLR9 (setting [3]).

As to `CNC(=O)CN1CCC(c2ccc3[nH]c(-c4ccnc(C)c4)c(C(C)C)c3c2)CC1` [Example 513], the pIC50 against human TLR7 (setting [1]) is 7.87; at human TLR8 (setting [2]), 8.01; on human TLR9 (setting [3]), 5.65.
